In experiment [1] the test system is HUVEC. Description: HUVEC proliferation assay ([3H]thymidine incorporation). In kind it is cell-based, human. To be noted: HUVEC; for Proliferation (IC50/IC50 Itra): IC50 of analog relative to IC50 of itraconazole; for Proliferation (EC50/IC50 Itra): footnote g: EC50 of analog relative to IC50 of itraconazole. The method, then:
The activity of the analogs against HUVEC proliferation, an in vitro proxy for angiogenesis inhibition (Table 3) was analyzed. […]
Pooled HUVEC (Lonza) were grown in EGM-2 bullet kit media (Lonza) and used at passage eight or lower. The proliferation assays were conducted as previously described (Nacev, B.; Low, W. K.; Huang, Z.; Su, T.; Su, Z.; Alkuraya, H.; Kasuga, D.; Sun, W.; Trager, M.; Braun, M.; Fischer, G.; Zhang, K.; Liu, J. O., Acalcineurin-independent mechanism of angiogenesis inhibition by anon-immunosuppressive Cyclosporin Aanalog. J. Pharmacol. Exp. Ther. 2011, DOI:10.1124/jpet.111.18085).
Background: Uptake of a labelled nucleoside into DNA is a usual measure of proliferation.

Experiment [2] has as its system VEGFR2. The experiment in a line: VEGFR2 glycosylation in HUVEC (Western blot scoring). The experiment is classed as cell-based, human. To be noted: VEGFR2 hypoglycosylation score in HUVEC, 2 μM, 24 h. The method, then: VEGFR2 hypoglycosylation was scored either robust (++), intermediate (+), or absent (−) (FIG. 6).
HUVEC were seeded at 5×10^4 per well of a 6-well plate in 3 mL of media. After an overnight recovery, the media was replaced with 2 mL fresh media and the analogs were added from 200× stocks in DMSO. Following a 24-h incubation, the media was aspirated and 2×SDS sample buffer was added to the cells which were incubated on ice for 10 min and then boiled for 10 min. […] Following three washes in TBS-T, the membrane was incubated with anti-rabbit horseradish peroxidase conjugated IgG (GE Healthcare) (1:5000-1:10000 dilution) in 1% BSA in TBS-T. The membranes were washed three times in TBS-T, incubated for 1-5 minutes with ECL substrate (Immobilon Wester, Milipore) and visualized (Kodak Image Staion 440 CF).

Experiment [3] relates to MB cultures derived from Ptch−/+; p53−/− mice. The experiment in a line: Medulloblastoma (MB) proliferation assay. In kind it is cell-based, mouse. To be noted: mouse medulloblastoma cultures, 96 h; relative to itraconazole. The text has this: These cultures were derived from Ptch^−/+; p53^−/− mice that spontaneously develop medulloblastoma associated with ligand independent Hh pathway activation.
MB cultures were derived from mouse Ptch^−/+; p53^−/− MB grown as hind-flank allografts in nude mice (Harlan). Briefly, tumors were mechanically disrupted and made into single cell suspensions by two passages through a 70 μm nylon filter. Cells were pelleted by centrifugation and resuspended in PBS pH 7.4 twice. The cell suspension was then subjected to centrifugation at 1000×g for 25 min over a ficoll gradient. The viable cell layer formed at the ficoll boundary was then collected, suspended in PBS, and pelleted by centrifugation. The resulting pellet was then suspended and cultured as “neurospheres” in Neurobasal Media-A supplemented with retinoic acid deficient B-27 extract (NBMedia). Cells were cultured for three passages, with neurospheres disaggregated using Accumax (Innovative Cell Technologies) between passages.
Cultured MB neurospheres were disaggregated as described and 1×10^4 cells were seeded into wells of a 96-well assay plate in NBMedia and exposed to multiple analogue concentrations: Relative cell numbers following a 96-h incubation were quantified by CellTiter 96® AQueous One Solution Cell Proliferation Assay (Promega) per manufacturer's recommendations using a SpectraMax M2e spectrophotometer and SoftMax Pro software (Molecular Devices). Data was analyzed using Prism5 (GraphPad Software) and IC50 and IC90 values were determined from dose-response curves fitted to mean corrected absorbance normalized to control treatment.

Experiment [4] has as its system Gli1 transcript. Description: Quantification of Gli1 transcript by TaqMan analysis in MB cells (Hh pathway). In kind it is cell-based, mouse. To be noted: Gli1 transcript fold induction score; MB cells exposed 24 h at the IC90 for MB proliferation. The text has this:
Inhibitors of the Hh pathway are known to inhibit MB cell proliferation. However, MB cell proliferation is also affected by drugs with targets other than Hh signaling.
Following drug exposure, cells were washed in PBS and pelleted by centrifugation at 300×g. Cell pellets were lysed in Trizol reagent (Invitrogen). Total RNA was separated and collected in the aqueous phase following centrifugation of lysate in the presence of chloroform. Total RNA was ethanol precipitated and purified over RNeasy Mini Kit (Qiagen) filter columns per manufacturer's recommendations. Transcript levels were quantified using gene-specific TaqMan primer/probe sets and the StepOne Plus Real-Time PCR system (Applied Biosystems) on cDNA reverse transcribed using the QuantiTect Reverse Transcription Kit (Qiagen) per manufacturers' recommendations. Results were quantified using StepOne Plus software v2.1 (Applied Biosystems) and were expressed as fold induction relative to control samples using the A ΔCt (2^−ΔΔCt) method with actin as an internal control. The primer/probe set (Applied Biosystems) for TaqMan PCR for mouse Gli-1 was Mm00494645_m1, and for mouse actin was Mm00607939_s1.

Consider `CCCC(C)n1ncn(-c2ccc(N3CCN(c4ccc(OC[C@@H]5CO[C@@](Cn6cncn6)(c6ccc(Cl)cc6Cl)O5)cc4)CC3)cc2)c1=O` (relative stereo) [Compound 7h, cis-(2S,4R)-4-[4-[4-[4-[[2-(2,4-Dichlorophenyl)-2-(1H-1,2,4-triazol-1-ylmethyl)-1,3-dioxolan-4-yl]methoxy]phenyl]-lpiperazinyl]phenyl]-2,4-dihydro-2-(1-methylbutyl)-3H-1,2,4-triazol-3-one], for which, in experiment [1], the “Proliferation (IC50/IC50 Itra)” value amounted to 0.75. Also, the “Glycosylation (2 μM dose)” value in experiment [2] is given as “++”. The “MB Proliferation (IC50/IC50 Itra)” value in experiment [3] amounted to 0.38. In addition, the “Gli I Inhibition (IC90 Prolif. dose)” value in experiment [4] is listed as “++ (≤0.15)”.

In the case of `CC(C)CCn1ncn(-c2ccc(N3CCN(c4ccc(OC[C@@H]5CO[C@@](Cn6cncn6)(c6ccc(Cl)cc6Cl)O5)cc4)CC3)cc2)c1=O` (relative stereo) [Compound 7i, cis-(2S,4R)-4-[4-[4-[4-[[2-(2,4-Dichlorophenyl)-2-(1H-1,2,4-triazol-1-ylmethyl)-1,3-dioxolan-4-yl]methoxy]phenyl]-lpiperazinyl]phenyl]-2,4-dihydro-2-(3-methylbutyl)-3H-1,2,4-triazol-3-one], in experiment [1], the “Proliferation (IC50/IC50 Itra)” value came out at 1.42. Also, the “Glycosylation (2 μM dose)” value in experiment [2] is listed as “+”. The “MB Proliferation (IC50/IC50 Itra)” value in experiment [3] came out at 0.41. Further, in experiment [4], the “Gli I Inhibition (IC90 Prolif. dose)” value is on record as “++ (≤0.15)”.

For the compound `CCCCCn1ncn(-c2ccc(N3CCN(c4ccc(OCC5COC(Cn6cncn6)(c6ccc(Cl)cc6Cl)O5)cc4)CC3)cc2)c1=O` [Compound 7g, cis-(2S,4R)-4-[4-[4-[4-[[2-(2,4-Dichlorophenyl)-2-(1H-1,2,4-triazol-1-ylmethyl)-1,3-dioxolan-4-yl]methoxy]phenyl]-lpiperazinyl]phenyl]-2,4-dihydro-2-pentyl-3H-1,2,4-triazol-3-one], the “Proliferation (IC50/IC50 Itra)” value in experiment [1] is reported as 1.09. Moreover, the “Glycosylation (2 μM dose)” value in experiment [2] is recorded as “−”. For the same compound, in experiment [3], the “MB Proliferation (IC50/IC50 Itra)” value is 0.66. The “Gli I Inhibition (IC90 Prolif. dose)” value in experiment [4] was “++ (≤0.15)”.

As to `CCC(CC)n1ncn(-c2ccc(N3CCN(c4ccc(OCC5COC(Cn6cncn6)(c6ccc(Cl)cc6Cl)O5)cc4)CC3)cc2)c1=O` [Compound 7j, cis-(2S,4R)-4-[4-[4-[4-[[2-(2,4-Dichlorophenyl)-2-(1H-1,2,4-triazol-1-ylmethyl)-1,3-dioxolan-4-yl]methoxy]phenyl]-lpiperazinyl]phenyl]-2,4-dihydro-2-(1-ethylpropyl)-3H-1,2,4-triazol-3-one], in experiment [1], the “Proliferation (IC50/IC50 Itra)” value turned out to be 1.10. Besides, in experiment [2], the “Glycosylation (2 μM dose)” value was “+”. The “MB Proliferation (IC50/IC50 Itra)” value in experiment [3] is given as 0.54. Also, in experiment [4], the “Gli I Inhibition (IC90 Prolif. dose)” value is reported as “++ (≤0.15)”.

Regarding `O=c1n(-c2ccc(N3CCN(c4ccc(OCC5COC(Cn6cncn6)(c6ccc(Cl)cc6Cl)O5)cc4)CC3)cc2)cnn1C1CCCCC1` [Compound 7k, cis-(2S,4R)-4-[4-[4-[4-[[2-(2,4-Dichlorophenyl)-2-(1H-1,2,4-triazol-1-ylmethyl)-1.3-dioxolan-4-yl]methoxy]phenyl]-lpiperazinyl]phenyl]-2,4-dihydro-2-(1-cyclohexyl)-3H-1,2,4-triazol-3-one], the “Proliferation (IC50/IC50 Itra)” value in experiment [1] is on record as 0.44. For the same compound, in experiment [2], the “Glycosylation (2 μM dose)” value is “++”. Moreover, in experiment [3], the “MB Proliferation (IC50/IC50 Itra)” value amounted to 0.37. In addition, the “Gli I Inhibition (IC90 Prolif. dose)” value in experiment [4] was “− (≥0.45)”.

`O=c1n(-c2ccc(N3CCN(c4ccc(OCC5COC(Cn6cncn6)(c6ccc(Cl)cc6Cl)O5)cc4)CC3)cc2)cnn1CC1CCCC1` [Compound 7l, cis-(2S,4R)-4-[4-[4-[4-[[2-(2/l-Dichlorophenyl)-2-(1H-1,2,4-triazol-1-ylmethyl)-1,3-dioxolan-4-yl]methoxy]phenyl]-lpiperazinyl]phenyl]-2,4-dihydro-2-(1-cyclopentylmethyl)-3H-1,2,4-triazol-3-one]: the “Proliferation (IC50/IC50 Itra)” value in experiment [1] is 0.50. In experiment [2], the “Glycosylation (2 μM dose)” value is recorded as “++”. Besides, the “MB Proliferation (IC50/IC50 Itra)” value in experiment [3] is 0.50. For the same compound, the “Gli I Inhibition (IC90 Prolif. dose)” value in experiment [4] is “+ (0.16 to 0.44)”.

For the compound `CCCCCCCCn1ncn(-c2ccc(N3CCN(c4ccc(OCC5COC(Cn6cncn6)(c6ccc(Cl)cc6Cl)O5)cc4)CC3)cc2)c1=O` [Compound 7m, cis-(2S,4R)-4-[4-[4-[4-[[2-(2,4-Dichlorophenyl)-2-(1H-1,2,4-triazol-1-ylmethyl)-1,3-dioxolan-4-yl]methoxy]phenyl]-piperazinyl]phenyl]-2,4-dihydro-2-(n-octyl)-3H-1,2,4-triazol-3-one], the “Proliferation (EC50/IC50 Itra)” value in experiment [1] was 2.24^g. Also, the “Glycosylation (2 μM dose)” value in experiment [2] is given as “−”. The “MB Proliferation (IC50/IC50 Itra)” value in experiment [3] amounted to 0.67. Also, the “Gli I Inhibition (IC90 Prolif. dose)” value in experiment [4] is given as “++ (≤0.15)”.

As for `O=c1n(-c2ccc(N3CCN(c4ccc(OCC5COC(Cn6cncn6)(c6ccc(Cl)cc6Cl)O5)cc4)CC3)cc2)cnn1CCCCCCc1ccccc1` [Compound 7n, cis-(2S,4R)-4-[4-[4-[4-[[2-(2,4-Dichlorophenyl)-2-(1H-1,2,4-triazol-1-ylmethyl)-1,3-dioxolan-4-yl]methoxy]phenyl]-lpiperazinyl]phenyl]-2,4-dihydro-2-(6-phenylhexyl)-3H-1,2,4-triazol-3-one], in experiment [1], the “Proliferation (EC50/IC50 Itra)” value is 1.45^g. For the same compound, the “Glycosylation (2 μM dose)” value in experiment [2] is given as “−”. The “MB Proliferation (IC50/IC50 Itra)” value in experiment [3] came out at 0.69. The “Gli I Inhibition (IC90 Prolif. dose)” value in experiment [4] was “++ (≤0.15)”.

Consider `CCC#CCCn1ncn(-c2ccc(N3CCN(c4ccc(OCC5COC(Cn6cncn6)(c6ccc(Cl)cc6Cl)O5)cc4)CC3)cc2)c1=O` [Compound 7o, cis-(2S,4R)-4-[4-[4-[4-[[2-(2,4-Dichlorophenyl)-2-(1H-1,2,4-triazol-1-ylmethyl)-1,3-dioxolan-4-yl]methoxy]phenyl]-lpiperazinyl]phenyl]-2,4-dihydro-2-(hex-3-ynyl)-3H-1,2,4-triazol-3-one], for which the “Proliferation (IC50/IC50 Itra)” value in experiment [1] was 1.09. In experiment [2], the “Glycosylation (2 μM dose)” value is recorded as “−”. For the same compound, the “MB Proliferation (IC50/IC50 Itra)” value in experiment [3] stood at 1.07. In addition, the “Gli I Inhibition (IC90 Prolif. dose)” value in experiment [4] is recorded as “++ (≤0.15)”.

In the case of `[N-]=[N+]=NCCCCCCn1ncn(-c2ccc(N3CCN(c4ccc(OCC5COC(Cn6cncn6)(c6ccc(Cl)cc6Cl)O5)cc4)CC3)cc2)c1=O` [Compound 7p, cis-(2S,4R)-4-[4-[4-[4-[[2-(2,4-Dichlorophenyl)-2-(1H-1,2,4-triazol-1-ylmethyl)-1,3-dioxolan-4-yl]methoxy]phenyl]-lpiperazinyl]phenyl]-2,4-dihydro-2-(6-azidohexyl)-3H-1,2,4-triazol-3-one], the “Proliferation (IC50/IC50 Itra)” value in experiment [1] is 0.30. Besides, in experiment [2], the “Glycosylation (2 μM dose)” value was “+”. In experiment [3], the “MB Proliferation (IC50/IC50 Itra)” value came to 0.70. Further, the “Gli I Inhibition (IC90 Prolif. dose)” value in experiment [4] is recorded as “+ (0.16 to 0.44)”.

In the case of `CC/C=C/CCn1ncn(-c2ccc(N3CCN(c4ccc(OCC5COC(Cn6cncn6)(c6ccc(Cl)cc6Cl)O5)cc4)CC3)cc2)c1=O` [Compound 7s, cis-(2S,4R)-4-[4-[4-[4-[[2-(2,4-Dichlorophenyl)-2-(1H-1,2,4-triazol-1-ylmethyl)-1,3-dioxolan-4-yl]methoxy]phenyl]-lpiperazinyl]phenyl]-2,4-dihydro-2-((E)-hex-3-enyl)-3H-1,2,4-triazol-3-one], the “Proliferation (IC50/IC50 Itra)” value in experiment [1] amounted to 1.57. Moreover, the “Glycosylation (2 μM dose)” value in experiment [2] was “−”. The “MB Proliferation (IC50/IC50 Itra)” value in experiment [3] was 0.63. Also, in experiment [4], the “Gli I Inhibition (IC90 Prolif. dose)” value was “++ (≤0.15)”.

Source of the values: US11028078B2 (The Johns Hopkins University, priority 2011, dated 2021).
